# Source: ChEMBL document CHEMBL3885861, “Open TG-GATES”
# Organism: Rattus norvegicus
# Experiment: Open TG-GATES - Regimen: Single
# Format: toxicity, organism-based, Sprague-Dawley
# Parameters: regimen Single, gender Male, age 6 weeks
# Conditions: in vivo, po, route gavage; for Bas / Eos / Ht / Lym / MCH / Mono / Neu / RBC / Ret: tissue Blood; for KIDNEY_L / KIDNEY_R / KIDNEY_TOTAL: tissue Kidney; for ALP / ALT / AST / CRE / DBIL / IP / K / LDH / Na / PL / RALB / TBIL / TC / TG / TP / gamma-GTP / Ca: tissue Plasma; for LIVER: tissue Liver
# [1] = 0 mg/kg, 3 h, dose level Control
# [2] = 0 mg/kg, 6 h, dose level Control
# [3] = 0 mg/kg, 9 h, dose level Control
# [4] = 0 mg/kg, 24 h, dose level Control
# [5] = 200 mg/kg, 24 h, dose level Low
compound,measurement,setting,value
COc1cc2ncnc(Nc3ccc(F)c(Cl)c3)c2cc1OCCCN1CCOCC1 [GEFITINIB],TERMINAL_BW,[1],216 g
same,Bas,[1],0%
same,Eos,[1],0.8%
same,Ht,[1],39.6%
same,Lym,[1],74.2%
same,MCH,[1],21.5 pg
same,Mono,[1],2.6%
same,Neu,[1],21.8%
same,RBC,[1],610.2 x10_4/ul
same,Ret,[1],9.3%
same,KIDNEY_L,[1],0.9 g
same,KIDNEY_R,[1],0.9 g
same,KIDNEY_TOTAL,[1],1.8 g
same,ALP,[1],1581.8 IU/L
same,ALT,[1],42.2 IU/L
same,AST,[1],73.2 IU/L
same,CRE,[1],0.2 mg/dL
same,DBIL,[1],0 mg/dL
same,IP,[1],8.2 mg/dL
same,K,[1],4.1 meq/L
same,LDH,[1],183.2 IU/L
same,Na,[1],143.1 meq/L
same,PL,[1],148.6 mg/dL
same,RALB,[1],3.9 g/dL
same,TBIL,[1],0.02 mg/dL
same,TC,[1],85.4 mg/dL
same,TG,[1],64.2 mg/dL
same,TP,[1],5.5 g/dL
same,gamma-GTP,[1],1.1 IU/L
same,TERMINAL_BW,[2],212.6 g
same,Bas,[2],0%
same,Eos,[2],0.8%
same,Ht,[2],40.1%
same,Lym,[2],83.6%
same,MCH,[2],21.4 pg
same,Mono,[2],2.4%
same,Neu,[2],12.8%
same,RBC,[2],623.6 x10_4/ul
same,Ret,[2],9.7%
same,KIDNEY_L,[2],0.9 g
same,KIDNEY_R,[2],1 g
same,KIDNEY_TOTAL,[2],1.9 g
same,LIVER,[2],9.6 g
same,ALP,[2],1643.4 IU/L
same,ALT,[2],41.2 IU/L
same,AST,[2],71 IU/L
same,CRE,[2],0.1 mg/dL
same,Ca,[2],10.6 mg/dL
same,DBIL,[2],0.002 mg/dL
same,IP,[2],9.6 mg/dL
same,K,[2],4.2 meq/L
same,LDH,[2],200.6 IU/L
same,Na,[2],142.5 meq/L
same,PL,[2],158.8 mg/dL
same,RALB,[2],3.9 g/dL
same,TBIL,[2],0.018 mg/dL
same,TC,[2],90.8 mg/dL
same,TG,[2],78.2 mg/dL
same,TP,[2],5.4 g/dL
same,gamma-GTP,[2],1 IU/L
same,TERMINAL_BW,[3],210 g
same,Bas,[3],0%
same,Eos,[3],1%
same,Ht,[3],38.5%
same,Lym,[3],77.6%
same,MCH,[3],21.3 pg
same,Mono,[3],3.4%
same,Neu,[3],17.6%
same,RBC,[3],601.2 x10_4/ul
same,Ret,[3],9.4%
same,KIDNEY_L,[3],1 g
same,KIDNEY_R,[3],0.9 g
same,KIDNEY_TOTAL,[3],1.9 g
same,LIVER,[3],9 g
same,ALP,[3],1562.4 IU/L
same,ALT,[3],35.2 IU/L
same,AST,[3],67.2 IU/L
same,CRE,[3],0.1 mg/dL
same,DBIL,[3],0.004 mg/dL
same,IP,[3],10 mg/dL
same,K,[3],4.2 meq/L
same,LDH,[3],169 IU/L
same,Na,[3],143.4 meq/L
same,PL,[3],139.6 mg/dL
same,RALB,[3],3.9 g/dL
same,TBIL,[3],0.022 mg/dL
same,TC,[3],81.6 mg/dL
same,TG,[3],67.3 mg/dL
same,TP,[3],5.4 g/dL
same,gamma-GTP,[3],1 IU/L
same,TERMINAL_BW,[4],223.4 g
same,Bas,[4],0%
same,Eos,[4],1%
same,Ht,[4],39.9%
same,Lym,[4],78.5%
same,MCH,[4],20.8 pg
same,Mono,[4],3.5%
same,Neu,[4],16%
same,RBC,[4],619.8 x10_4/ul
same,Ret,[4],8.2%
same,KIDNEY_L,[4],1 g
same,KIDNEY_R,[4],1 g
same,KIDNEY_TOTAL,[4],1.9 g
same,LIVER,[4],10.6 g
same,ALT,[4],44.5 IU/L
same,AST,[4],75.8 IU/L
same,CRE,[4],0.2 mg/dL
same,Ca,[4],10.8 mg/dL
same,DBIL,[4],0 mg/dL
same,IP,[4],7.4 mg/dL
same,K,[4],4.4 meq/L
same,LDH,[4],145.5 IU/L
same,Na,[4],142.1 meq/L
same,PL,[4],149.5 mg/dL
same,RALB,[4],4.2 g/dL
same,TBIL,[4],0.01 mg/dL
same,TC,[4],79 mg/dL
same,TG,[4],122.7 mg/dL
same,TP,[4],5.7 g/dL
same,gamma-GTP,[4],1.3 IU/L
same,TERMINAL_BW,"200 mg/kg, 3 h, dose level Low",214.5 g
same,Bas,"200 mg/kg, 3 h, dose level Low",0%
same,Eos,"200 mg/kg, 3 h, dose level Low",0.8%
same,Ht,"200 mg/kg, 3 h, dose level Low",36.1%
same,Lym,"200 mg/kg, 3 h, dose level Low",74.4%
same,MCH,"200 mg/kg, 3 h, dose level Low",20.9 pg
same,Mono,"200 mg/kg, 3 h, dose level Low",3%
same,Neu,"200 mg/kg, 3 h, dose level Low",21.4%
same,RBC,"200 mg/kg, 3 h, dose level Low",577.2 x10_4/ul
same,Ret,"200 mg/kg, 3 h, dose level Low",8.9%
same,KIDNEY_L,"200 mg/kg, 3 h, dose level Low",1 g
same,KIDNEY_R,"200 mg/kg, 3 h, dose level Low",1 g
same,KIDNEY_TOTAL,"200 mg/kg, 3 h, dose level Low",2 g
same,LIVER,"200 mg/kg, 3 h, dose level Low",9.2 g
same,ALP,"200 mg/kg, 3 h, dose level Low",1618.4 IU/L
same,ALT,"200 mg/kg, 3 h, dose level Low",52 IU/L
same,AST,"200 mg/kg, 3 h, dose level Low",82.8 IU/L
same,CRE,"200 mg/kg, 3 h, dose level Low",0.1 mg/dL
same,Ca,"200 mg/kg, 3 h, dose level Low",9.9 mg/dL
same,DBIL,"200 mg/kg, 3 h, dose level Low",0.016 mg/dL
same,IP,"200 mg/kg, 3 h, dose level Low",9.2 mg/dL
same,K,"200 mg/kg, 3 h, dose level Low",4.1 meq/L
same,LDH,"200 mg/kg, 3 h, dose level Low",220.4 IU/L
same,Na,"200 mg/kg, 3 h, dose level Low",141.6 meq/L
same,PL,"200 mg/kg, 3 h, dose level Low",147.4 mg/dL
same,RALB,"200 mg/kg, 3 h, dose level Low",3.8 g/dL
same,TBIL,"200 mg/kg, 3 h, dose level Low",0.066 mg/dL
same,TC,"200 mg/kg, 3 h, dose level Low",97 mg/dL
same,TG,"200 mg/kg, 3 h, dose level Low",39.9 mg/dL
same,TP,"200 mg/kg, 3 h, dose level Low",5.3 g/dL
same,gamma-GTP,"200 mg/kg, 3 h, dose level Low",0.9 IU/L
same,TERMINAL_BW,"200 mg/kg, 6 h, dose level Low",210.7 g
same,Bas,"200 mg/kg, 6 h, dose level Low",0%
same,Eos,"200 mg/kg, 6 h, dose level Low",0.6%
same,Ht,"200 mg/kg, 6 h, dose level Low",37.3%
same,Lym,"200 mg/kg, 6 h, dose level Low",79.4%
same,MCH,"200 mg/kg, 6 h, dose level Low",21.5 pg
same,Mono,"200 mg/kg, 6 h, dose level Low",3.6%
same,Neu,"200 mg/kg, 6 h, dose level Low",15.8%
same,RBC,"200 mg/kg, 6 h, dose level Low",579.2 x10_4/ul
same,Ret,"200 mg/kg, 6 h, dose level Low",9.1%
same,KIDNEY_L,"200 mg/kg, 6 h, dose level Low",0.9 g
same,KIDNEY_R,"200 mg/kg, 6 h, dose level Low",0.9 g
same,KIDNEY_TOTAL,"200 mg/kg, 6 h, dose level Low",1.9 g
same,LIVER,"200 mg/kg, 6 h, dose level Low",8.9 g
same,ALP,"200 mg/kg, 6 h, dose level Low",1407.4 IU/L
same,ALT,"200 mg/kg, 6 h, dose level Low",53.8 IU/L
same,AST,"200 mg/kg, 6 h, dose level Low",78.6 IU/L
same,CRE,"200 mg/kg, 6 h, dose level Low",0.2 mg/dL
same,Ca,"200 mg/kg, 6 h, dose level Low",9.9 mg/dL
same,DBIL,"200 mg/kg, 6 h, dose level Low",0.018 mg/dL
same,IP,"200 mg/kg, 6 h, dose level Low",9.6 mg/dL
same,K,"200 mg/kg, 6 h, dose level Low",4 meq/L
same,LDH,"200 mg/kg, 6 h, dose level Low",142.6 IU/L
same,Na,"200 mg/kg, 6 h, dose level Low",141.5 meq/L
same,PL,"200 mg/kg, 6 h, dose level Low",142.8 mg/dL
same,RALB,"200 mg/kg, 6 h, dose level Low",3.9 g/dL
same,TBIL,"200 mg/kg, 6 h, dose level Low",0.076 mg/dL
same,TC,"200 mg/kg, 6 h, dose level Low",93 mg/dL
same,TG,"200 mg/kg, 6 h, dose level Low",31.4 mg/dL
same,TP,"200 mg/kg, 6 h, dose level Low",5.4 g/dL
same,gamma-GTP,"200 mg/kg, 6 h, dose level Low",0.9 IU/L
same,TERMINAL_BW,"200 mg/kg, 9 h, dose level Low",210 g
same,Bas,"200 mg/kg, 9 h, dose level Low",0%
same,Eos,"200 mg/kg, 9 h, dose level Low",0.6%
same,Ht,"200 mg/kg, 9 h, dose level Low",38.5%
same,Lym,"200 mg/kg, 9 h, dose level Low",78.4%
same,MCH,"200 mg/kg, 9 h, dose level Low",20.9 pg
same,Mono,"200 mg/kg, 9 h, dose level Low",3.2%
same,Neu,"200 mg/kg, 9 h, dose level Low",17.2%
same,RBC,"200 mg/kg, 9 h, dose level Low",611 x10_4/ul
same,Ret,"200 mg/kg, 9 h, dose level Low",8.8%
same,KIDNEY_L,"200 mg/kg, 9 h, dose level Low",0.9 g
same,KIDNEY_R,"200 mg/kg, 9 h, dose level Low",0.9 g
same,KIDNEY_TOTAL,"200 mg/kg, 9 h, dose level Low",1.8 g
same,LIVER,"200 mg/kg, 9 h, dose level Low",8.6 g
same,ALP,"200 mg/kg, 9 h, dose level Low",1488 IU/L
same,ALT,"200 mg/kg, 9 h, dose level Low",48.2 IU/L
same,AST,"200 mg/kg, 9 h, dose level Low",78.4 IU/L
same,CRE,"200 mg/kg, 9 h, dose level Low",0.2 mg/dL
same,Ca,"200 mg/kg, 9 h, dose level Low",9.9 mg/dL
same,DBIL,"200 mg/kg, 9 h, dose level Low",0.01 mg/dL
same,IP,"200 mg/kg, 9 h, dose level Low",9.5 mg/dL
same,K,"200 mg/kg, 9 h, dose level Low",4.3 meq/L
same,Na,"200 mg/kg, 9 h, dose level Low",143.6 meq/L
same,PL,"200 mg/kg, 9 h, dose level Low",146 mg/dL
same,RALB,"200 mg/kg, 9 h, dose level Low",3.8 g/dL
same,TBIL,"200 mg/kg, 9 h, dose level Low",0.048 mg/dL
same,TC,"200 mg/kg, 9 h, dose level Low",93.6 mg/dL
same,TG,"200 mg/kg, 9 h, dose level Low",39 mg/dL
same,TP,"200 mg/kg, 9 h, dose level Low",5.4 g/dL
same,gamma-GTP,"200 mg/kg, 9 h, dose level Low",1.1 IU/L
same,TERMINAL_BW,[5],215.5 g
same,Bas,[5],0%
same,Eos,[5],0.8%
same,Ht,[5],40.7%
same,Lym,[5],66%
same,MCH,[5],20.6 pg
same,Mono,[5],4%
same,Neu,[5],28.6%
same,RBC,[5],635 x10_4/ul
same,Ret,[5],8.2%
same,KIDNEY_L,[5],1 g
same,KIDNEY_R,[5],1 g
same,KIDNEY_TOTAL,[5],2 g
same,LIVER,[5],9.5 g
same,ALP,[5],1548.6 IU/L
same,ALT,[5],39.6 IU/L
same,AST,[5],72.8 IU/L
same,CRE,[5],0.2 mg/dL
same,Ca,[5],10.7 mg/dL
same,DBIL,[5],0.004 mg/dL
same,IP,[5],8.6 mg/dL
same,K,[5],4.4 meq/L
same,LDH,[5],215.2 IU/L
same,Na,[5],142.9 meq/L
same,PL,[5],166 mg/dL
same,RALB,[5],4 g/dL
same,TBIL,[5],0.022 mg/dL
same,TG,[5],69.4 mg/dL
same,TP,[5],5.5 g/dL
same,gamma-GTP,[5],1.2 IU/L
same,TERMINAL_BW,"600 mg/kg, 3 h, dose level Middle",215 g
